Data on 47 compounds can be found in US9695127B2, “Compounds for treating HIV and methods for using the compounds” (University of Pittsburgh—Of the Commonwealth System of …, priority 2012, dated 2017).

For assay [1], the system named is HIV-1 NL4-3. The assay is described as follows: HIV-1 infectivity in TZM-b1 reporter cells (luciferase). To be noted: for inhibition at 3 µM: Human immunodeficiency virus 1, NL43, TZM-b1, 48 h, read-out: INFECTIVITY @ 3 μM % Inhibition vs. DMSO control; for INFECTIVITY @ 3 μM % Inhibition vs. DMSO control: TZM-b1 reporter cells. It counts as cell-based. Here is the method: Compounds (1 μM) shown in FIG. 7 were added to cultures of U87MG and CEM-T4 cells in 96-well plates, followed by infection with wild-type HIV-1 NL4-3 (50 pg p24 equivalents/ml) 1 hour later. […] Virus replication was assessed by p24 ELISA after 4 days (U87MG) or 9 days (CEM-T4). Data are expressed as the mean percent inhibition as compared to control cultures incubated with the carrier solvent (DMSO)±S.E.M. (n=4). […] FIG. 9 concerns infectivity assays. Compounds (3 μM) were added to cultures of the reporter cell line TZM-b1 followed by infection with either wild-type or Nef-defective (ΔNef) HIV NL4-3 in 96-well plates. After 48 hours, relative virus infectivity was assessed as luciferase production in infected cells. […]
HIV assays: Viral stocks were prepared by transfection of 293T cells (ATCC) with wild-type and Nef-defective (ΔNef) proviral genomes (NL4—3 strain) and amplified in the T-cell line, MT2 (NIH AIDS Research and Reference Reagent Program). Viral replication was assessed in the U87MG astroglioma cell line engineered to express the HIV-1 co-receptors CD4 and CXCR4 or in the T-lymphoblast cell line, CEM-T4. […] Compounds were solubilized in DMSO, and added to the cell culture medium 1 h prior to infection with HIV. Viral replication was monitored for either 4 days (U87MG) or 9 days (CEM-T4) by measuring p24 Gag protein levels in the culture supernatant using standard ELISA-based techniques. HIV-1 infectivity was measured using the reporter cell line, TZM-b1 (NM AIDS Research and Reference Reagent Program). Cells were grown in 96-well plates (2.5×10^4) 8 h prior to virus infection to permit adherence. Compounds were pre-incubated with wild-type HIV-1 for 4 h prior to addition to the cells in a final volume of 200 μl. After 48 h at 37° C., the cells were washed with PBS and lysed in luciferase lysis buffer (Promega) by rocking for 15 min Lysates (40 μl) were transferred to white 96-well plates and 50 μl luciferase reagent (Promega) was injected into each well. Readings were recorded with a delay time of 2 sec and an integration period of 10 sec.

Assay [2] concerns wild-type HIV-1 NL4-3. The assay is described as follows: HIV-1 replication in U87MG cells (p24 ELISA). It counts as cell-based. The note with it: for inhibition at 3 µM: Human immunodeficiency virus 1, NL43, U-87 MG, 96 h, read-out: REPLICATION @ 3 μM % Inhibition vs. DMSO control; for REPLICATION @ 3 μM % Inhibition vs. DMSO control: U87MG cells. The source says: In particular disclosed embodiments, the compound may be used to block Nef-dependent HIV replication and infectivity. FIG. 7 illustrates the chemical structures of the compounds identified by the Nef:Hck HTS campaign and subsequently shown to block Nef-dependent enhancement of HIV-1 replication in two different cell lines are shown, along with the IC50 values for each compound against Hck alone vs. the Nef:Hck complex. FIG. 8 illustrates results concerning HIV replication. […] Viral output for the DMSO-treated control cultures was consistently greater than 100-fold over the HIV input, typically ranging from 9,000-12,000 p24 equivalents/ml. Virus replication was assessed by p24 ELISA after 4 days (U87MG) or 9 days (CEM-T4). Data are expressed as the mean percent inhibition as compared to control cultures incubated with the carrier solvent (DMSO)±S.E.M. (n=4). Results of replication and cytotoxicity experiments with all certain hit compounds from the primary screen are shown in FIG. 3 and FIG. 4. FIG. 9 concerns infectivity assays. Compounds (3 μM) were added to cultures of the reporter cell line TZM-b1 followed by infection with either wild-type or Nef-defective (ΔNef) HIV NL4-3 in 96-well plates. After 48 hours, relative virus infectivity was assessed as luciferase production in infected cells. Results are plotted as the mean percent of HIV-1 infectivity observed in control cells incubated with the carrier solvent DMSO±S.E.M. (n=3). In the absence of Nef, infectivity is reduced by about 50% (ΔNef; dashed line shown for reference).
HIV assays: Viral stocks were prepared by transfection of 293T cells (ATCC) with wild-type and Nef-defective (ΔNef) proviral genomes (NL4—3 strain) and amplified in the T-cell line, MT2 (NIH AIDS Research and Reference Reagent Program). Viral replication was assessed in the U87MG astroglioma cell line engineered to express the HIV-1 co-receptors CD4 and CXCR4 or in the T-lymphoblast cell line, CEM-T4. Both the U87 MG and CEM-T4 cell lines support HIV-1 replication in a Nef-dependent manner, and were obtained from the NM AIDS Research and Reference Reagent Program. Compounds were solubilized in DMSO, and added to the cell culture medium 1 h prior to infection with HIV. Viral replication was monitored for either 4 days (U87MG) or 9 days (CEM-T4) by measuring p24 Gag protein levels in the culture supernatant using standard ELISA-based techniques. HIV-1 infectivity was measured using the reporter cell line, TZM-b1 (NM AIDS Research and Reference Reagent Program). Cells were grown in 96-well plates (2.5×10^4) 8 h prior to virus infection to permit adherence. Compounds were pre-incubated with wild-type HIV-1 for 4 h prior to addition to the cells in a final volume of 200 μl. After 48 h at 37° C., the cells were washed with PBS and lysed in luciferase lysis buffer (Promega) by rocking for 15 min Lysates (40 μl) were transferred to white 96-well plates and 50 μl luciferase reagent (Promega) was injected into each well. Readings were recorded with a delay time of 2 sec and an integration period of 10 sec.
(In general: ELISA stands for enzyme-linked immunosorbent assay.)

`N=C(N)n1nc(-c2ccc(F)cc2)c(Cc2cccc(Cl)c2)c1O` [DD-1-21]: the inhibition at 3 µM in assay [1] came to 0%. Still for that read-out and setting: under `Oc1c(Cc2cccc(Cl)c2)c(-c2ccc(F)cc2)nn1C1=NCCN1` [DD-1-22] stands 0%; under `Cc1c(Cc2cccc(Cl)c2)c(-c2ccccc2)nn1C(=N)N` [DD-1-26], 0%; under `COc1ccc(-c2nn(C(=N)N)c(O)c2Cc2cccc(Cl)c2)cc1` [DD-1-27], 0%.

Consider `Nc1c(Cc2cccc(Cl)c2)c(-c2ccc(F)cc2)nn1C1=NCCN1` [DD-1-30], for which the inhibition at 3 µM in assay [1] is 0%. With `COc1cccc(Cc2c(-c3ccc([N+](=O)[O-])cc3)nn(C(=N)N)c2O)c1` [EAF-1-21], the inhibition at 3 µM in assay [1] amounted to 0%. As for `COc1cccc(Cc2c(-c3ccc(F)cc3)nn(C(=N)N)c2O)c1` [EAF-1-22], in assay [1], the inhibition at 3 µM turned out to be 0%. As to `COc1ccc(-c2n[nH]c(O)c2CCc2cccc(Cl)c2)cc1` [JV-1-59-1], the inhibition at 3 µM in assay [2] was found to be 30.1%; in assay [1] it was 0%.

For the compound `N=C(N)n1nc(-c2ccc([N+](=O)[O-])cc2)c(CCc2cccc(Cl)c2)c1O` [JV-1-62-2-1], the inhibition at 3 µM in assay [2] was found to be 53.2%; in assay [1], 0%.

Take `N=C(N)n1nc(-c2ccc([N+](=O)[O-])cc2)cc1O` [JV-1-62-2-2]: the inhibition at 3 µM in assay [1] was found to be 0%.

With `COc1ccc(-c2nn(C(=N)N)c(O)c2CCc2cccc(OC)c2)cc1` [JV-1-67-1], the inhibition at 3 µM in assay [1] is 0%. In the case of `COc1ccc(-c2nn(C3=NCCN3)c(O)c2CCc2cccc(OC)c2)cc1` [JV-1-71-1], the inhibition at 3 µM in assay [1] is 25.2%. Regarding `COc1ccc(-c2nn(C(=N)N)c(O)c2CCc2ccc(F)cc2)cc1` [JV-1-74-1], the inhibition at 3 µM in assay [2] was determined as 27.8%; in assay [1], 0%. For `COc1ccc(-c2nn(C3=NCCN3)c(O)c2CCc2ccc(F)cc2)cc1` [JV-1-74-2], the inhibition at 3 µM in assay [2] came to 46.8%; in assay [1], 36.7%.

Consider `COc1ccc(-c2n[nH]c(O)c2CCc2ccc(F)cc2)cc1` [JV-1-75-1], for which, in assay [1], the inhibition at 3 µM was 0%. On to `COc1ccc(-c2nn(-c3ccccc3)c(O)c2CCc2ccc(F)cc2)cc1` [JV-1-79], for which the “REPLICATION @ 3 μM % Inhibition vs. DMSO control” value in assay [2] is on record as “Toxic”. For the same compound, in assay [1], the “INFECTIVITY @ 3 μM % Inhibition vs. DMSO control” value was “Toxic”.

Take `COc1ccc(-c2nn(-c3ccccn3)c(O)c2CCc2ccc(F)cc2)cc1` [JV-1-80]: in assay [2], the “REPLICATION @ 3 μM % Inhibition vs. DMSO control” value is listed as “Toxic”. In addition, the “INFECTIVITY @ 3 μM % Inhibition vs. DMSO control” value in assay [1] is recorded as “Toxic”.

Regarding `COc1ccc(-c2nn(-c3ccccc3)c(OC)c2CCc2ccc(F)cc2)cc1` [JV-1-81], in assay [1], the inhibition at 3 µM was 19.7%. For the compound `Cc1nn(C(=N)N)c(O)c1CCc1ccc(F)cc1` [JV-1-87], in assay [1], the “INFECTIVITY @ 3 μM % Inhibition vs. DMSO control” value is on record as 0.0%. Regarding `N=C(N)n1nc(C2CC2)c(CCc2ccc(F)cc2)c1O` [JV-1-89], in assay [2], the “REPLICATION @ 3 μM % Inhibition vs. DMSO control” value is reported as 56.1%. In addition, the “INFECTIVITY @ 3 μM % Inhibition vs. DMSO control” value in assay [1] was 28.0%. Take `COc1ccc(-c2nn(C(N)=S)c(O)c2CCc2ccc(F)cc2)cc1` [JV-1-94]: the “INFECTIVITY @ 3 μM % Inhibition vs. DMSO control” value in assay [1] is 0.0%. For `N=C(N)n1nc(-c2ccc(C(F)(F)F)cc2)c(Cc2cccc(Cl)c2)c1O` [JV-2-9-1], the inhibition at 3 µM in assay [1] was found to be 0%. Take `N=C(N)n1nc(-c2ccc([N+](=O)[O-])cc2)c(Cc2cccc(Cl)c2)c1O` [JV-2-10]: in assay [1], the inhibition at 3 µM is 3%. As for `NC(=S)n1nc(-c2ccc(C(F)(F)F)cc2)c(Cc2cccc(Cl)c2)c1O` [JV-2-12], the inhibition at 3 µM in assay [1] is 41.7%. With `O=[N+]([O-])c1ccc(-c2n[nH]c(O)c2Cc2ccc(F)cc2)cc1` [JV-2-13], the inhibition at 3 µM in assay [1] was 1.7%.

As for `Oc1c(Cc2cccc(Cl)c2)c(-c2ccc(C(F)(F)F)cc2)nn1C1=NCCN1` [JV-2-14], the inhibition at 3 µM in assay [1] was 54.7%. On the same count and under the same terms, under `N=C(N)n1nc(-c2ccccc2)c(Cc2cccc(Cl)c2)c1N` [JV-2-16] stands 0%; under `N=C(N)n1nc(-c2ccc(F)cc2)c(Cc2cccc(Cl)c2)c1N` [JV-2-19], 0%. Take `COc1ccccc1/N=N/c1c(-c2ccc([N+](=O)[O-])cc2)nn(C(N)=S)c1O` [JZ-1-49]: in assay [1], the inhibition at 3 µM was found to be 0%.

For the compound `COc1ccc(/N=N/c2c(-c3ccc([N+](=O)[O-])cc3)n[nH]c2O)cc1` [JZ-1-50], in assay [1], the inhibition at 3 µM came to 28.9%.

With `COc1cccc(/N=N/c2c(-c3ccc([N+](=O)[O-])cc3)nn(C(N)=S)c2O)c1` [JZ-1-56], the inhibition at 3 µM in assay [1] was 0%. The same measure, in the same setting: under `Oc1[nH]nc(-c2ccccc2)c1/N=N/c1ccccc1` [JZ-1-58-2] stands 1.7%. As for `NC(=S)n1nc(-c2ccccc2)c(/N=N/c2ccccc2)c1O` [JZ-1-58-3], the inhibition at 3 µM in assay [1] amounted to 7.3%. `COc1ccc(-c2nn(C(N)=S)c(O)c2/N=N/c2cccc(Cl)c2)cc1` [JZ-1-62]: in assay [1], the inhibition at 3 µM turned out to be 9.3%. Take `NC(=S)n1nc(-c2ccc(C(F)(F)F)cc2)c(/N=N/c2cccc(Cl)c2)c1O` [JZ-1-64]: the inhibition at 3 µM in assay [1] came to 26.5%. For the compound `NC(=S)n1nc(-c2ccc([N+](=O)[O-])cc2)cc1O` [JZ-1-94], in assay [1], the inhibition at 3 µM was found to be 0%.

As to `COc1ccc(-c2nn(-c3ccccc3)c(OC)c2/C=C/c2ccccc2)cc1` [JZ-1-145-1], in assay [1], the inhibition at 3 µM came to 0%.

Regarding `COc1ccc(-c2nn(-c3ccccc3)c(OC)c2/C=C/c2cccc(F)c2)cc1` [JZ-1-146-1], the inhibition at 3 µM in assay [1] was 0%. With `COc1ccc(-c2nn(C(=N)N3CCOCC3)c(O)c2CCc2ccc(F)cc2)cc1` [JZ-1-154-2-2], the inhibition at 3 µM in assay [1] is 0%. On to `O=[N+]([O-])c1ccc(-c2nn(C3=NCCN3)c(O)c2Cc2ccc(F)cc2)cc1` [JZ-1-171], for which the inhibition at 3 µM in assay [1] was determined as 0%.

Consider `N=C(N)n1nc(-c2ccc(F)cc2)c(Cc2ccc(F)cc2)c1O` [JZ-1-175], for which, in assay [1], the inhibition at 3 µM is 0%. `Oc1c(Cc2ccc(F)cc2)c(-c2ccc(F)cc2)nn1C1=NCCN1` [JZ-1-176]: the inhibition at 3 µM in assay [1] is 7.7%. For `N=C(N)n1nc(-c2ccc(C(F)(F)F)cc2)c(Cc2ccc(F)cc2)c1O` [JZ-1-177], in assay [1], the inhibition at 3 µM worked out at 0%. Still for that read-out and setting: under `Oc1[nH]nc(-c2ccc(C(F)(F)F)cc2)c1Cc1ccc(F)cc1` [JZ-1-179-2] stands 0%; under `N=C(N1CCOCC1)n1nc(-c2ccc(C(F)(F)F)cc2)c(Cc2ccc(F)cc2)c1O` [JZ-1-180], 0%. Regarding `NC(=S)n1nc(-c2ccc([N+](=O)[O-])cc2)c(/N=N/c2ccccc2Cl)c1O` [KM-1-48], in assay [1], the inhibition at 3 µM is 19.3%. In the case of `C(=C\c1c[nH]nc1-c1ccccc1)/c1ccccc1` [Vit-3f], the inhibition at 3 µM in assay [1] is 0%.

By inhibition is commonly meant the relative decrease from the control value, in per cent.
